Measured values published in publication PMC8673317 (Journal of medicinal chemistry, 2021).
Entries after “also recorded” stand apart in the source; their conditions may differ. Structures can show the parent of a compound that is named as a salt.

Experiments:
129Sv6 mice [1] = experiment: Radiant heat tail flick antinociception; format: in vivo, mouse; conditions: for opioid receptor dependence of antinociception (MOR, DOR, KOR KO mice): 129Sv6 (and C57BL/6J) KO mice, KAE 100 mg/kg po in 129Sv6; for effect of naloxone on antinociception: naloxone 1 mg/kg sc 15 min before drug; for antinociceptive activity in the tail-flick assay at doses as high as 100 mg/kg: alkaloid 2 po and sc, 9OH sc
C57BL/6J mice [2] = experiment: Lethality; format: in vivo, mouse
MOR KO mice [3] = experiment: Lethality; format: in vivo, mouse
[4] = test system: 318 non-olfactory GPCRs (opioid receptors); experiment: PRESTO-Tango GPCRome β-arrestin2 recruitment screen; format: cell-based, human; conditions: 10 μM
BB3 = biological target: T1, BB3 (Homo sapiens, UniProt P32247); experiment: PRESTO-Tango concentration-response; format: cell-based
T1 sequence (P32247 1-399): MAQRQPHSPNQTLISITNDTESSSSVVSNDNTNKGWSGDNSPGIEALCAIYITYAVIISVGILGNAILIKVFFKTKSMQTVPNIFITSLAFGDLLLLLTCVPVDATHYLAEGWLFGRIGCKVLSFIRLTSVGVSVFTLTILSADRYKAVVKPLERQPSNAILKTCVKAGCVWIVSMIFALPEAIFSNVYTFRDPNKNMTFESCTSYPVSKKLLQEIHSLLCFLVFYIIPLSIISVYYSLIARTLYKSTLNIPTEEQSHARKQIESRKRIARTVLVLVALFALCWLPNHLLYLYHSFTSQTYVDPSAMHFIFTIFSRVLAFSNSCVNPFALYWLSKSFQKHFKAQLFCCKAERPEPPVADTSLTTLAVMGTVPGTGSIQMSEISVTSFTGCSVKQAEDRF

CXCR7 = CXCR7 (Homo sapiens, UniProt P25106); experiment: PRESTO-Tango concentration-response; format: cell-based
Chain of CXCR7 (P25106 whole entry): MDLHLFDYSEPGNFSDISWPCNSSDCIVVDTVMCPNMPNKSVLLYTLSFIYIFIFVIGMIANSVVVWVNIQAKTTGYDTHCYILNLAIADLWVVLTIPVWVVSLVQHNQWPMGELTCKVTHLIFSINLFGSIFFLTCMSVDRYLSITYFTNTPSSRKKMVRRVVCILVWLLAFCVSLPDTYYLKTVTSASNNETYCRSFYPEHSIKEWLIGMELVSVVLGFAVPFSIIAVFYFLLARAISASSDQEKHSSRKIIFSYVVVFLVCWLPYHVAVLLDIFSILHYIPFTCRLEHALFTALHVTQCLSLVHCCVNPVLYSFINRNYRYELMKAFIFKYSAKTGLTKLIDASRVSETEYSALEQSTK

CCR3 = biological target: T2, CCR3 (Homo sapiens, UniProt P51677); experiment: PRESTO-Tango concentration-response; format: cell-based
T2 sequence (P51677 1-355): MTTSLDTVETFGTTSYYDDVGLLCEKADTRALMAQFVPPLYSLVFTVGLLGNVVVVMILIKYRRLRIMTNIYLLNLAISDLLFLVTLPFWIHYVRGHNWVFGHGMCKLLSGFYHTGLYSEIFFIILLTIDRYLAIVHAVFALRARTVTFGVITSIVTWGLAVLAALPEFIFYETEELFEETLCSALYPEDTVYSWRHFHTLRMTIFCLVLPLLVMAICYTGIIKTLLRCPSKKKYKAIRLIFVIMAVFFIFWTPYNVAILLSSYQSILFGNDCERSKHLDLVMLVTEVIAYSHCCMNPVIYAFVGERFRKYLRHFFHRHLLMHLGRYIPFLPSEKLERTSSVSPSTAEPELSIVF

mMOR [5] = biological target: T3, mMOR (Mus musculus, UniProt P42866); experiment: [35S]GTPγS functional assay in membranes of transfected cells; conditions: read-out: [35S]GTPγS mMOR %Emax
T3 sequence (P42866 whole entry): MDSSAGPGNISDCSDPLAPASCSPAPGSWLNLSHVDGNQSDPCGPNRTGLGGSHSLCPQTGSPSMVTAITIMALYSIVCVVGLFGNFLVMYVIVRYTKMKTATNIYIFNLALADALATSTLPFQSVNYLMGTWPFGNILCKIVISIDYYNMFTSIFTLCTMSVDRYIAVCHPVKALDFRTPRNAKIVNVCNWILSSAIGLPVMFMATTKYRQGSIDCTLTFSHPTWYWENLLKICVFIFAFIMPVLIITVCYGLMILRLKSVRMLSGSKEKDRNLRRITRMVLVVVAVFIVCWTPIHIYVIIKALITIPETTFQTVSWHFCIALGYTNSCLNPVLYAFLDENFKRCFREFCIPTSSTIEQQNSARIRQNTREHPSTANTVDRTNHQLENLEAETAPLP

mDOR = mDOR (Mus musculus, UniProt P32300); experiment: as above; conditions: antagonism of 100 nM agonist
Chain of mDOR (P32300 whole entry): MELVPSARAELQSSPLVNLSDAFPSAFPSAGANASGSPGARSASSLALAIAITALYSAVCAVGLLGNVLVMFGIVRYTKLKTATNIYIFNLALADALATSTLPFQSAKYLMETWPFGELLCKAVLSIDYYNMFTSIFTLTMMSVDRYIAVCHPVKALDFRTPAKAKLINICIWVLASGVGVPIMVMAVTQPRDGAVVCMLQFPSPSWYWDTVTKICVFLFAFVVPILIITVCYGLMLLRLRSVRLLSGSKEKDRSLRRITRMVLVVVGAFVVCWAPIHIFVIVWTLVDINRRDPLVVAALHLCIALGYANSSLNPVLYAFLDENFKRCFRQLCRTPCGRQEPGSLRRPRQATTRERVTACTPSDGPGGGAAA

C57BL/6J mice [6] = experiment: 55 °C warm-water tail-withdrawal; format: in vivo, mouse
MOR KO mice [7] = experiment: Antagonism of icv KOR/DOR agonist antinociception; format: in vivo, mouse; conditions: MP 30 mg/kg sc
mMOR [8] = biological target: T3, mMOR; conditions: read-out: [35S]GTPγS mMOR EC50; agonist stimulation, ± SEM; cited from earlier work
mKOR [9] = biological target: T4, mKOR (Mus musculus, UniProt P33534); conditions: agonist stimulation, ± SEM; cited from earlier work
T4 sequence (P33534 whole entry): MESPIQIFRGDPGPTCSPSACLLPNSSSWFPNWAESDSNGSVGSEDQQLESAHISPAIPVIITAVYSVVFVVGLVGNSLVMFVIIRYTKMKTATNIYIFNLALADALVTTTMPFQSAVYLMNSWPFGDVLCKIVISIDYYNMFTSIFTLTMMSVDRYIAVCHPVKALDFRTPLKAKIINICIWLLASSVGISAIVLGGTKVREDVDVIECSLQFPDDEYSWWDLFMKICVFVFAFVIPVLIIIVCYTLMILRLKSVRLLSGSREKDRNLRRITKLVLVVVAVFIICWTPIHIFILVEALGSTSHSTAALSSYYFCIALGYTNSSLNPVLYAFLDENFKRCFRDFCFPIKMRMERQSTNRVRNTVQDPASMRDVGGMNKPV

C57BL/6J mice [10] = conditions: MP 0.76, 1.5, 4 mg/kg sc; Figure 2L reprinted; listed as MP; cited from earlier work
[11] = Pharmacokinetic study, plasma and brain levels by LC-MS/MS
C57BL/6J mice [12] = experiment: Conditioned place preference and aversion; format: in vivo, mouse; conditions: alkaloid extract 100 mg/kg/d po, mitragynine 30 mg/kg/d po, 7OH 1 mg/kg/d sc
C57BL/6J mice [13] = experiment: Locomotor; format: in vivo, mouse; conditions: KAE 45 mg/kg po, mitragynine 20 mg/kg po, 7OH 1 mg/kg sc, MP […] sc
Lethality = format: in vivo, mouse; conditions: 129Sv6, mouse, in vivo, po
129Sv6 mice [14] = experiment: Lethality; format: in vivo, mouse; conditions: from rodent oral LD50
[15] = Stability in pH 7.4 buffer; format: physicochemical
[16] = pH 7.4
mice = conditions: po; cited from earlier work
rats = conditions: intravenous (iv) route; cited from earlier work
[17] = Pharmacokinetic study, plasma and brain levels by LC-MS/MS; remark: listed apart in the source
CD1 mice = conditions: cited from earlier work
humans = conditions: cited from earlier work
mKOR [18] = biological target: T4, mKOR; experiment: [35S]GTPγS functional assay in membranes of transfected cells; conditions: relative to U50, 488H
[19] = C57BL/6J, mitragynine 30 mg/kg po

Question: Which results are given for CC[C@@H]1C[N+]2=C(C[C@@H]1/C(=C\OC)C(=O)OC)c1[nH]c3cccc(OC)c3c1CC2 [3-dehydromitragynine, (2S,3S)-2-((E)-1,3-Dimethoxy-3-oxoprop-1-en-2-yl)-3-ethyl-8-methoxy-2,3,4,6,7,12-hexahydro-1H-indolo[2,3-a]quinolizin-5-ium TFA Salt]?
Answer: antinociception in mice (in words) (129Sv6 mice [1]; administered directly): not antinociceptive; lethality (C57BL/6J mice [2]; 50 mg/kg, sc): 100%; lethality in the presence of KOR antagonist (nor-BNI) and DOR antagonist (NTI) (C57BL/6J mice [2]; 3DM 50 mg/kg sc, norBNI 10 mg/kg sc 24 h, NTI 20 mg/kg sc 15 min pretreatment): lethality was still observed; lethality (MOR KO mice [3]; 50 mg/kg, sc): 100%; increase in luminescence signal, fold of basal, at opioid receptors [4]: > 3 fold of basal; off-target activity (in words) ([4]; Table 1 and Figure 6B): no other notable off–target activity beyond opioid receptors; activity at BB3 (in words) (BB3): Poor (μM) activity; activity at CXCR7 (in words) (CXCR7): Poor (μM) activity; activity at CCR3 (in words) (CCR3): Poor (μM) activity; Emax (mMOR [5]): 44 ± 1%

Question: Which “[35S]GTPγS mDOR IC50” value (mDOR) does the source give for CC[C@@H]1CN2CCc3c([nH]c4cccc(O[C@@H]5O[C@H](C(=O)O)[C@@H](O)[C@H](O)[C@H]5O)c34)[C@@H]2C[C@@H]1/C(=C\OC)C(=O)OC [9-glucuronoyl mitragynine, (2S,3S,5R,6S)-6-(((2S,3S)-2-((E)-1,3-Dimethoxy-3-oxoprop-1-en-2-yl)-3-ethyl-1,2,3,4,6,7,12,12b-octahydroindolo[2,3-a]quinolizin-8-yl)oxy)-3,4,5-trihydroxytetrahydro-2H-pyran-2-carboxylic Acid] here?
Answer: Its value is “no activity”.

Question: With CC[C@@H]1CN2CCc3c([nH]c4cccc(O)c34)[C@@H]2C[C@@H]1/C(=C\OC)C(=O)OC [9-hydroxy corynanthedine, 9-hydroxycorynantheidine] as the compound, how does the “[35S]GTPγS mDOR IC50” value (mDOR) read?
Answer: Its value is “no activity”.

Question: Which “opioid receptor dependence of antinociception (MOR, DOR, KOR KO mice)” value (129Sv6 mice [1]) does the source give for CC[C@@H]1CN2CC[C@]3(Nc4cccc(OC)c4C3=O)[C@@H]2C[C@@H]1/C(=C\OC)C(=O)OC [mitragynine pseudoindoxyl] here?
Answer: Its value is “mediated through MOR, independent of DOR/KOR”.

Question: What about the “more antinociceptive potency than mitragynine (sc)” value (129Sv6 mice [1]; 129Sv6 mice, sc) of the same compound?
Answer: The value was > 100 fold.

Question: And the “effect of naloxone on antinociception” value (129Sv6 mice [1])?
Answer: Its value is “naloxone-sensitive”.

Question: And the “antinociceptive potency over sc morphine” value (C57BL/6J mice [6]; C57BL/6J, sc)?
Answer: Its value is “about 10 fold”.

Question: And the ED50 (C57BL/6J mice [6]; Mus musculus, sc, read-out: antinociceptive ED50 (95% CI), sc)?
Answer: The ED50 was 0.26 mg/kg.

Question: And the “antinociceptive potency relative to morphine” value (C57BL/6J mice [6]; sc, C57BL/6J and 129Sv6 strains)?
Answer: The value was 2–10 fold.

Question: And the “antagonism of icv SNC 80 antinociception” value (MOR KO mice [7]; SNC 80 100 nmol icv)?
Answer: Its value is “antagonized”.

Question: What about the “antagonism of icv U50, 488H antinociception” value (MOR KO mice [7]; U50, 488H 100 nmol icv) of the same compound?
Answer: Its value is “antagonized”.

Question: What about the EC50 (mMOR [8]) of the same compound?
Answer: The EC50 was 1.66 ± 0.1 nM.

Question: And the “[35S]GTPγS mKOR EC50” value (mKOR [9])?
Answer: The value was “no activity”.

Question: And the “inhibition of GI transit (in words)” value (C57BL/6J mice [10])?
Answer: The value was “showed constipation at all doses”.

Question: And the “level in plasma and brain at 8 h” value [11, 19]?
Answer: The value was “no quantifiable”.

Question: And the concentration at 20 min ([11]; C57BL/6J, mouse, plasma, sc)?
Answer: Its concentration at 20 min is 0.41 ± 0.12 µM.

Question: What does the source list for CC[C@@H]1CN2CCc3c([nH]c4cccc(OC)c34)[C@@H]2C[C@@H]1/C(=C\OC)C(=O)OC [mitragynine]?
Answer: opioid receptor dependence of antinociception (MOR, DOR, KOR KO mice) (129Sv6 mice [1]): mediated by MOR (but not DOR and KOR); effect of naloxone on antinociception (129Sv6 mice [1]): reversed; time to peak antinociceptive effect (C57BL/6J mice [6]; both strains (C57BL/6J, 129Sv6), po and sc): 15 to 20 min; conditioned place preference (CPP/CPA) (C57BL/6J mice [12]): displayed CPP; also recorded: produced reward behavior; hyperlocomotion compared to morphine (C57BL/6J mice [13]): attenuated; LD50 (Lethality): 750 mg/kg; oral LD50 corrected by standard allometric scaling, amount in an adult human (129Sv6 mice [14]): > 2.5 g; lethality (C57BL/6J mice [2]; 1 g/kg, po, data not shown): 100%; lethality (in words) (MOR KO mice [3]; 1 g/kg po, C57BL/6J or MOR KO mice): death of all animals; stability in D2O ([15]; 1H NMR at 1, 5, 10, 24 h, room temperature): stable; stability in pH 7.4 buffer ([15]; LC/MS at 1, 5, 10 and 24 h): very stable; increase of half-life in microsomes in the presence of ketoconazole [16]: ~ 5 fold; [35S]GTPγS mKOR EC50 (mKOR [9]): no activity; reported LD50 (mice): 477 mg/kg; self-administration (rats): not self-administered; level in plasma and brain at 24 h [11, 19]: below detection limits; brain concentration of intact mitragynine ([11]; C57BL/6J, po, ED80 dose (30 mg/kg)): 6.63 ± 0.67 µM; brain concentration ([11]; C57BL/6J, sc 30 mg/kg): 9.74 ± 3.05 µM; brain concentration greater than MOR agonist potency ([11]; po ED80 dose, C57BL/6J and 129Sv6): 30-to-60 fold; brain concentration of intact mitragynine ([17]; 129Sv6, po, ED80 dose (10 mg/kg)): 12.22 ± 3.4 µM; brain concentration ([17]; 129Sv6, sc 10 mg/kg): 30.06 ± 8.12 µM

Question: With CN1CC[C@]23c4c5ccc(O)c4O[C@H]2[C@@H](O)C=C[C@H]3[C@H]1C5 [morphine] as the compound, how does the “antinociceptive ED50 (95% CI), po” value (129Sv6 mice [1]; 129Sv6 mice, po, at peak effect) read?
Answer: The value was 3.32 (2.08–5.32) mg/kg.

Question: What about the “antinociceptive ED50” value (CD1 mice) of the same compound?
Answer: Its value is 5 mg/kg.

Question: What about the “potency intravenously versus orally” value (humans) of the same compound?
Answer: The value was ~ 3 fold.

Question: For C=C[C@H]1CN2CCc3c([nH]c4cccc(OC)c34)[C@@H]2C[C@@H]1/C(=C\OC)C(=O)OC [paynanthine, paynantheine], which “antinociceptive activity in the tail-flick assay at doses as high as 100 mg/kg” value (129Sv6 mice [1]; 129Sv6 mice) is on record?
Answer: The value was “inactive”.

Question: Which “antinociceptive activity in the tail-flick assay at doses as high as 100 mg/kg” value (129Sv6 mice [1]; 129Sv6 mice) does the source give for CC[C@H]1CN2CCc3c([nH]c4cccc(OC)c34)[C@@H]2C[C@@H]1/C(=C\OC)C(=O)OC [speciogynine] here?
Answer: The value was “inactive”.

Question: What about the “[35S]GTPγS mKOR %Emax” value (mKOR [18]) of the same compound?
Answer: The value was “no activity”.
